Tests used:
[1] = Plasma pharmacokinetics in rats after tracheal nebulization, intravenous injection and oral gavage (Example 1); assay type: in vivo, SD rats; conditions: for AUC(0-t) / Cmax: male, Sprague-Dawley; for AUC(0-t) / Cmax / F: rat plasma
Excerpt: Example 1: Plasma pharmacokinetics study in rats after administration of EGCG via tracheal nebulization, intravenous injection, and oral gavage.
Materials: EGCG, content > 98wt%.
Preparation of tracheal nebulization solution: Accurately weigh the EGCG compound and dissolve it in Solvent 1 to prepare a clear and transparent drug solution. Solvent 1 is composed of purified water, citric acid, and sodium citrate.
Preparation of intravenous injection and oral gavage solutions: Accurately weigh the EGCG compound and dissolve it in saline.
Animals: Clean-grade male SD rats, provided by Qinglongshan Animal Breeding Farm in Jiangning District, Nanjing City, with a body weight range of 160-200g.
Tracheal Nebulization (inh): Rats in each tracheal nebulization group were anesthetized with isoflurane and fixed in a restraint device. An anesthetic laryngoscope was used to press the animal's tongue root and expose the glottis. A micro liquid nebulizer needle (blunt tip) filled with a specific amount of EGCG solution, was gently inserted into the trachea. The drug was nebulized into the lungs, the needle was quickly withdrawn, and the rat was removed from the holder, with its head rotated left and right to ensure even distribution of the drug across the lung lobes. The nebulized inhalation doses were 1.6 mg/kg, 3.2 mg/kg, and 6.4 mg/kg, with 5 rats in each dose group.
Oral Gavage (po): The dosage for each rat was determined based on body weight. An appropriate size syringe and gavage tube were used to administer the drug orally. The dose was 60 mg/kg, with 5 rats.
Intravenous Injection (iv): EGCG was administered via tail vein injection. The dose was 3.2 mg/kg, with 5 rats in total.
Blood samples were collected from the experimental groups via the orbital venous plexus before administration (0 min) and at 5 min, 15 min, 30 min, 1 h, 2 h, 4 h, and 6 h after administration (8 sampling points in total), with approximately 50-100 µL of whole blood collected at each point.
After collection at the specified time points, blood samples were placed in heparinized tubes, centrifuged, and plasma was separated into centrifuge tubes, then stored at -70°C for subsequent analysis.
Mass spectrometry conditions: Determined using UPLC-MS/MS. Chromatographic conditions: Determined using. Pharmacokinetic parameters were calculated using the WinNonlin pharmacokinetic software with statistical moment methods for each animal.

[2] = Drug concentration in rat plasma and lungs after tracheal nebulization and oral gavage (Example 2); assay type: in vivo, rats; conditions: for Cmax / AUC(0-t): plasma; for AUC(0-t): read-out: Plasma AUC0-t
Experimental: As shown in Example 1, after inhalation (such as tracheal nebulization) administration of 1.6 mg/kg EGCG and oral gavage administration of 60 mg/kg EGCG, the AUC0-t in rat plasma were similar. Based on this, this example investigates the changes in drug concentration in rat plasma and lungs over time after a single lower dose of tracheal nebulization (0.8 mg/kg) compared to oral gavage (60 mg/kg) of EGCG. Both the tracheal nebulization and oral gavage groups consist of 5 rats each.
2.1 Blood Sampling Method: Blood was taken via femoral artery. Samples were taken at 30 minutes, 2 hours, 4 hours, and 6 hours post-administration (4 sampling points). After blood collection, 0.9 wt% physiological saline was used to lavage the lungs twice, then the entire lung was removed, dried with filter paper, and stored at -20°C until further analysis.
2.2 Plasma Sample Processing Method: 1 mL of plasma was mixed with 3 mL of ethyl acetate solution, vortexed, centrifuged, and the supernatant was evaporated to dryness. The residue was reconstituted with a reconstitution solution, vortexed, and 100 µL was used for analysis of plasma drug concentration.
2.3 Lung Tissue Sample Processing Method: Lung tissue samples were weighed, and 3 times the volume of physiological saline (w:v) was added to homogenize. 1 mL of the homogenate was mixed with 3 mL of ethyl acetate solution, vortexed, centrifuged, and the supernatant was evaporated to dryness. The residue was reconstituted with a reconstitution solution, vortexed, and 100 µL was used for analysis of lung drug concentration.

[3] = test system: TGFβ receptor 1 and 2 (TGFβR1/2) kinases; conditions: cited from earlier work
[4] = 26 IPF patients; oral co-administration; cited from earlier work
[5] = inhaled, tracheal nebulization (inh) 1.6 mg/kg
[6] = inhaled, tracheal nebulization (inh) 3.2 mg/kg
[7] = inhaled, tracheal nebulization (inh) 6.4 mg/kg
[8] = intravenous injection (iv) 3.2 mg/kg
[9] = inhaled, tracheal nebulization (inh.0.8mg/kg)
[10] = tracheal nebulization (inh.0.8mg/kg)

`O=C(O[C@@H]1Cc2c(O)cc(O)cc2O[C@@H]1c1cc(O)c(O)c(O)c1)c1cc(O)c(O)c(O)c1` [EGCG, (-)-Epigallocatechin gallate] showed an AUC(0-t) [1, 5] of 409 ± 75.6 ng·h/mL, a Cmax [1, 5] of 298 ± 91.9 ng/mL and an AUC(0-t) [1, 6] of 1120 ± 220 ng·h/mL. It also gave a Cmax [1, 6] of 1120 ± 127 ng/mL, an AUC(0-t) [1, 7] of 1860 ± 595 ng·h/mL and a Cmax [1, 7] of 2020 ± 658 ng/mL. The AUC(0-t) [1, 8] was 1680 ± 614 ng·h/mL, the Cmax [1, 8] was 1920 ± 789 ng/mL and the AUC(0-t) ([1]; oral gavage (po) 60 mg/kg) was 372 ± 167 ng·h/mL. The Cmax ([1]; oral gavage (po) 60 mg/kg) was 118 ± 73 ng/mL, the “dose ratio between oral gavage and inhalation when achieving the same plasma exposure level” value ([1]; po 60 mg/kg: inh 1.6 mg/kg, rat) was 37.5 times and the F ([1]; oral gavage (po) 60 mg/kg) was 1.2±0.0%. The F ([1]; tracheal nebulization (inh) 1.6 mg/kg) was 48.7±9.0%, the F ([1]; tracheal nebulization (inh) 3.2 mg/kg) was 66.9±13.1% and the F ([1]; tracheal nebulization (inh) 6.4 mg/kg) was 55.3±17.7%. The Kp ([2]; lung and plasma, inhaled, after inhalation 0.8 mg/kg, read-out: drug concentration in the lungs relative to that in plasma (higher)) was 100, the “Lung AUC0-t” value ([2]; oral gavage (po. 60mg/kg)) was 115 ng·h/mL and the “Lung Cmax” value ([2]; oral gavage (po. 60mg/kg)) was 34.5 ng/mL. It also gave a Cmax [2, 9] of 153 ng/mL, an AUC(0-t) [2, 9] of 292 ng·h/mL and a Cmax ([2]; oral gavage (po. 60mg/kg)) of 46 ng/mL. For the same compound, the AUC(0-t) ([2]; oral gavage (po. 60mg/kg)) was 136 ng·h/mL, the “Lung AUC0-t” value [2, 10] was 30891 ng·h/mL and the “Lung Cmax” value [2, 10] was 12720 ng/mL. The “inhibition of TGFβR1/2 kinases” value [3] was “effectively inhibit” and the “reduction of the plasma exposure of Nintedanib on co-administration” value [4] was “about 21%”.

Source: patent EP4623908A1, “USE OF (-)-EPIGALLOCATECHIN GALLATE COMPOUND” (CF Pharmtech, Inc., priority 2022, dated 2024)
